Results on two compounds are retold here after patent US20180289665A1, “USE OF CANNABIS TO TREAT MIGRAINE” (ONE WORLD CANNABIS LTD, priority 2014, published 2018).

For test [1], the system named is dural blood vessel dilation. The following applies: dilation from electrical stimulation, calcitonin gene-related peptide, nitrous oxide and capsaicin; reversed by a cannabinoid antagonist; cited from earlier work.
In test [2] the test system is patients with acute migraine attack. Description: Clinical trial of THC vs ibuprofen in acute migraine attack (Example 2). Format: in vivo, human. The settings on record: primary endpoint; assumption for sample size. The source says: To assess the effect of Tetrahydrocannabinol (THC) or a derivative thereof vs. NSAIDs (such as ibuprofen) in relieving acute migraine attack.
This example provides a prospective randomized double-blind, placebo-controlled trial.
The study population includes patients presenting with chief complaint an acute migraine attack to the emergency department (ED) at Soroka University Medical Center.
The study population is randomized into “double dummy” design (ratio 1:1): • Group 1—received Tetrahydrocannabinol (THC) and placebo tab ibuprofen. • Group 2—received placebo Tetrahydrocannabinol (THC) drops and tab ibuprofen.
The THC study doses include dose rages of between about 5 mg and up to 50 mg THC, preferably dose ranges of between about 10 mg THC and about 30 mg THC.
According to one embodiment, an ethanol extracted cannabis oil dissolved in a vegetable oil (with a distinct taste to differentiate it from the placebo oil) is used in this study. The aforementioned cannabis composition comprises THC dose range of about 20 mg to about 40 mg.
Headache and nausea severity is assessed using a 4-point pain severity scale (score 0-3) as detailed above. […] Additionally, THC blood levels are measured at about 30, 60 minutes and 2 hours. […]

In the case of `CCCCC/C=C\C/C=C\C/C=C\C/C=C\CCCC(=O)NCCO` [AEA, N-arachidonoylethanolamine], the “dural blood vessel dilation” value in test [1] is given as “inhibit”.
For `CCCCCc1cc(O)c2c(c1)OC(C)(C)[C@@H]1CCC(C)=C[C@@H]21` [THC, Δ9-Tetrahydrocannabinol], the “expected treatment failure rate” value in test [2] came out at 40%.
